Values quoted from earlier work as cited in patent publication US9476892B2, “Composition and method for measuring thallium influx and efflux” (priority 2007, dated 2016).

Details: background statement, poorly soluble

[Cl][Tl] [thallium chloride]
concentration at which thallium chloride precipitates out of solution: ≥ 4500 µM
